# Legend:
# Huh-7 cells = test: Release of active metabolite in Huh-7 cells; assay type: in vitro ADME, human
# Description: Huh-7 cells were plated in 1 mL culture medium (DMEM, containing glucose, L-glutamine and sodium pyruvate, 10% FBS, 100 IU/mL penicillin, 100 μg/mL streptomycin, 2 mM GlutaMAX, 1% MEM non-essential amino acids) at the concentration 0.8, 0.4 and 0.2 million cells per well on 6 well plates for 24, 48 and 72 hr treatment, respectively. Plated cells were incubated overnight at 37° C. in an incubator.
# The following morning test compound was diluted to 20 μM from a stock solution in DMSO in fresh culture medium pre-warmed to 37° C. and 1 mL of the solution/well was added to cells. A final medium volume per well was 2.0 mL, test compound concentration in well was 10 μM and final DMSO concentration was 0.1%.
# After 24, 48 or 72 hr, the medium was carefully removed and cell monolayers were washed twice with 2 mL ice-cold PBS per well. Following the last wash, all PBS was carefully removed and 1.0 mL of extraction solution (ice-cold 70% methanol) added. The plate was tightly covered with Parafilm, plastic plate cover and Parafilm again and an intracellular content was extracted at −20° C. for 24 hr.
# After 24 hr the extracts were transferred into polypropylene microfuge tubes and dry on a refrigerated centrivap concentrator. Dry residues were reconstituted in 250 μL of HPLC-grade water and centrifuged at 16,000×g for 10 min. Aliquots (100 μL each) of the supernatants were transferred into a 96 well plate and internal standard (4 ng/mL final concentration) was added as the internal standard (IS) for LC-MS/MS analysis.
# [1] = Liver TP formation and liver targeting in vivo (Example 6, Table 7); set-up: species or system mice and monkey
# Excerpt: The in vitro antiviral inactivity of Z4 and Z2 is thought to reflect an inability of Huh-7 replicon cells to metabolize the prodrug moiety.
# [2] = Plasma and liver PK after single oral dose (Example 4C); assay type: in vivo, CD-1 mice; conditions: at 1 μmol/kg; single oral dose 10 mg/kg for 804a or 25 mg/kg for 804b
# Description: Plasma samples were analyzed for 2′-methyl-2′-fluorouridine (2′-Me-2′-F-U) by LC-MS/MS. The internal standard (IS) was D3-2′-F-2′-Me-G. For protein precipitation and extraction, each plasma sample (50 μL) was treated with 500 μL of 0.2% formic acid in acetonitrile and 20 μL of the internal standard working solution. After vortexing and centrifugation, 500 μL of the sample extracts were transferred to a new plate, dried under N2 at ˜28° C. and reconstituted with 75 μL of 0.2% FA in water. The extracts were chromatographed on an Aquasil C18 column using a gradient system of 0.2% formic acid in water and acetonitrile. The analytes were detected and quantified by tandem mass spectrometry in positive ion mode on an MDS Sciex API5000 equipped with a Turbo Ionspray® interface. The calibration range was 0.500 (LLOQ) to 200 ng/mL in mouse plasma. The corresponding range for molar units is 1.92 to 769 pmol/mL.
# Liver samples were analyzed for the active species 2′-methyl-2′-fluorouridine triphosphate (2′-Me-2′-F—U TP) by LC-MS/MS. […] Internal standard solution was added to the homogenate followed by neutralization with 20% ammonium hydroxide solution and addition of 500 μL 1% formic acid. The tissue samples were extracted by weak anion exchange solid phase extraction (SPE). […]
# cathepsin A (CatA) = target: T1, cathepsin A (CatA) (Homo sapiens, UniProt P10619); test: Hydrolysis of prodrugs by Cathepsin A; assay type: in vitro ADME
# T1 sequence (P10619 29-326 limits assumed): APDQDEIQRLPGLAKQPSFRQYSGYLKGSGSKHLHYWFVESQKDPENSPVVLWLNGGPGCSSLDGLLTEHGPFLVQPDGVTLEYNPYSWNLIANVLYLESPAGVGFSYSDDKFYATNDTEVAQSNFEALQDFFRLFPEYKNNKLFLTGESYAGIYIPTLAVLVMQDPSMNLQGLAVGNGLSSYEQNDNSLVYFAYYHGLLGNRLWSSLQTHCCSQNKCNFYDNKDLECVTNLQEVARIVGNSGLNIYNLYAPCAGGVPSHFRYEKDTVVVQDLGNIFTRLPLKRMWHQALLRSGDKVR
# T1 sequence (P10619 327-480 limits assumed): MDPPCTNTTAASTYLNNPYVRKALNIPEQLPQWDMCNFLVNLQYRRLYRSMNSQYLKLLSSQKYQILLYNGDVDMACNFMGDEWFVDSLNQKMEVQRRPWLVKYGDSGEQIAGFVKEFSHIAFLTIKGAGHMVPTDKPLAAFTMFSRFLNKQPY
# Description: CatA, cathepsin L (CatL) and CES1 were purchased from R & D Systems (Minneapolis, Minn.). Prior to the enzymatic hydrolysis reactions, CatA was activated according to the manufacturer's instruction. Briefly, CatA (0.05 μg/μL) was incubated with CatL (0.005 μg/μL) for 30 min at 37° C. in 25 mM MES pH 6.0 containing 5 mM DTT. The reaction was stopped by addition of the CatL specific inhibitor E64 (10 μM).
# The CatA assay was performed at 37° C. The reaction mixture contained 25 mM MES buffer pH 6.0, 100 mM NaCl, 4 mM DTT and 100 μM of the compound. The reaction was started by addition of the activated CatA enzyme to a final concentration of 0.005 μg/μL. […] Reactions were stopped by mixing the sample with an equal volume of ice-cold methanol, and were loaded on a HPLC for analysis.
# fresh mouse hepatocyte = test: Release of active metabolite in primary hepatocytes (mouse); assay type: in vitro ADME; conditions: 10 μM
# Description: (§1) Plates of fresh human and mouse hepatocytes were obtained on ice. The medium was removed and replaced with hepatocyte culture medium (William's E supplemented with penicillin-streptomycin, 1% L-glutamine, 1% insulin-transferrin-selenium and 0.1 μM Dexamethasone (Invitrogen) or with Invitro GRO HI medium complemented with Torpedo antibiotics (Celsis)). Cells were left overnight in an incubator at 37° C. to acclimatize to culture and the medium.
# (§2) Hepatocyte incubations were conducted at a final volume of 0.5 mL hepatocyte culture medium/well (0.8 million cells/well for human and 0.5 million cells/well for mouse; 12 well plate no overlay, collagen coat). Culture medium from overnight incubation of cells was removed and replaced with fresh medium, pre-warmed to 37° C., containing 10 μM of test compound from a stock solution in DMSO (final DMSO concentration was 0.1%). At each specific time point, incubation medium was removed and cell monolayers were carefully washed two times with ice-cold PBS. Following the last wash, all PBS was carefully removed and 1.0 mL of extraction solution (ice-cold 70% methanol/30% water) added. Cells were scraped off and suspended in the extraction solution, transferred to 2 mL polypropylene microfuge tubes and intracellular contents extracted overnight at −20° C.
# After the overnight treatment the cellular extracts were prepared by centrifugation at 16,000×g for 10 min to remove cellular debris. The remaining sample was then dried using a refrigerated centrivap concentrator. Dry extracts were reconstituted in 1000 μL of HPLC-grade water and centrifuged at 16,000×g for 10 min. Aliquots (100 μL each) of the supernatant were transferred into a 96 well plate and internal standard (4 ng/mL final concentration) was added as the internal standard (IS) for LC-MS/MS analysis.
# The incubation time points were 6, 24 and 48 hours for human hepatocytes and 1, 4, 8, 12 and 24 hours for mouse hepatocytes.
# HCV genotype 1b replicon = test: HCV replicon assay; assay type: cell-based; conditions: Hepatitis C virus, 72 h, Zluc (Huh-7-derived) cells, luciferase reporter, 72 hours; read-out: HCV Replicon EC50
# Description: Huh-7-derived cell line (Zluc) that harbors an HCV genotype 1b replicon and a luciferase reporter gene was grown in Dulbecco's Modified Eagle Medium (DMEM) supplemented with 10% fetal bovine serum, 2 mM GlutaMAX, 1% MEM nonessential amino acids, 100 IU/mL penicillin, 100 μg/mL streptomycin, and 0.5 mg/mL Geneticin® (G418). For dose response testing the cells were seeded in 96-well plates at 7.5×10^3 cells per well in a volume of 50 μL, and incubated at 37° C./5% CO2. Drug solutions were made up freshly in Huh-7 media as 2× stocks. Ten additional 5-fold dilutions were prepared from these stocks in DMEM without G418. At least three hours after Zluc cells were seeded, drug treatment was initiated by adding 50 μL of drug dilutions to the plates in duplicate. Final concentrations of drug ranged from 100 μM to […]. Cells were then incubated at 37° C./5% CO2. Alternatively, compounds were tested at two concentrations (1 μM and 10 μM). […] For this, media was removed from the plates via gentle tapping. Fifty microliters of ONE-glo luciferase assay reagent was added to each well. The plates were shaken gently for 3 min at room temperature and luminescence was measured on a Victor^3 V 1420 multilabel counter (Perkin Elmer) with a 1 second read time using a 700 nm cut-off filter. The EC50 values were calculated from dose response curves from the resulting best-fit equations determined by Microsoft Excel and XLfit 4.1 software. When screening at two fixed concentrations, the results were expressed as % inhibition at 1 μM and 10 μM.
# Zluc cells = test: Cytotoxicity evaluation in Zluc cells (CellTiter-Blue); assay type: cell-based, human; conditions: read-out: HCV Replicon CC50
# Description: For cytotoxicity evaluation, Zluc cells were treated with compound as described herein, and cell viability was monitored using the CellTiter-Blue Cell Viability Assay (Promega) by adding 20 μL of the assay solution to each well. The plates were then incubated at 37° C./5% CO2 for at least 3 hours.
# fresh human hepatocytes = test: Release of active metabolite in primary hepatocytes (human); assay type: in vitro ADME; conditions: 10 μM
# Description: as §1
# as §2, with “−20° C. […]” for “−20° C.”
SMILES,Huh-7 AUC0-72 (Huh-7 cells; Table 7) [pmol*hr/10^6cells],Liver TP [1] [pmol·h/g],Ms Plasma 2′-Me-2′-F-U AUC [2] [M·s],Hydrolysis by CatA (cathepsin A (CatA)),"CatA hydrolysis (cathepsin A (CatA); @ 18 h, 100 μM compound, 37° C., pH 6.0) [%]",Huh-7 TP AUC (Huh-7 cells; 10 μM test compound) [pmol.hr/mill cells],Huh-7 TP Cmax (Huh-7 cells; 10 μM test compound) [pmol/mill cells],MsH AUC (fresh mouse hepatocyte) [pmol.hr/mill cells],MsH Cmax (fresh mouse hepatocyte) [pmol/mill cells],EC50 (HCV genotype 1b replicon) [nM],CC50 (Zluc cells) [nM],FHH TP AUC (fresh human hepatocytes) [pmol.hr/mill cells],FHH TP Cmax (fresh human hepatocytes) [pmol/mill cells]
"CC(C)OC(=O)[C@H](C)N[P@@](=O)(OC[C@H]1O[C@@H](n2ccc(=O)[nH]c2=O)[C@](C)(F)[C@@H]1O)Oc1ccccc1 [PSI-7976, reference compound]",6527,310,0.00115,hydrolyzed,10,,,,,,,,
CC(C)OC(=O)[C@H](C)N[P@](=O)(OC[C@H]1O[C@@H](n2ccc(=O)[nH]c2=O)[C@](C)(F)[C@@H]1O)Oc1ccccc1 [GS-7977],,,0.00115,,,,,,,,,,
"CC(C)OC(=O)[C@H](C)NP(=O)(OC[C@H]1O[C@@H](n2ccc(=O)[nH]c2=O)[C@](C)(Cl)[C@@H]1O)Oc1ccccc1 (single isomer, unassigned) [40ii Diastereomer 2]",,,,,,14544,294,1794,87,250 to 1000,> 50000,4934,197

# — US10717758B2, “D-amino acid compounds for liver disease” (priority 2012, dated 2020)
